# Data published in paper PMC7767381, “Exploring the Anti-Cancer Mechanism of Novel 3,4′-Substituted Diaryl Guanidinium Derivatives” (Pharmaceuticals, 2020).
# Test system: MCF10A cells
# Test: alamarBlue toxicity in non-tumorigenic MCF10A cells
# Format: cell-based, human
# From the text: Considering the promising cytotoxicity results obtained with the cancer cell lines, we also evaluated the potential toxicity of the most efficient derivative (compound 4) in the non-cancerous cell line MCF10A (human mammary epithelial cell line).
# Cells were counted and seeded in 96-well plates at a density of 2 × 10^5 cells/mL for HL-60, 2.5 × 10^4 cells/mL for MCF-7, MCF10A and HeLa, 1 × 10^5 cells/mL for HCT116 and HKH-2, all of them in their respective media. The 96-well plates were then treated with a 1:100 dilution of stock concentrations of drugs or EtOH (1% v/v)/DMSO (0.1% v/v) as vehicle control in triplicate. Three blank wells containing 200 µL RPMI with no cells were also set-up as blanks. […] The plates were incubated in darkness at 37 °C for 4–5 h using a Molecular Devices microplate reader, the fluorescence (F) was then read at an excitation wavelength of 544 nm and an emission wavelength of 590 nm. Cell viability was then determined by subtracting the mean blank fluorescence (Fb) from the treated sample fluorescence (Fs) and expressing this as a percentage of the fluorescence of the blanked vehicle control (Fc). […] The results were then plotted as a nonlinear regression, sigmoidal dose-response curves on Prism, from which the IC50 value for each drug was determined. […]
# Figure S11. Scatter correlation found between the calculated logP and the HL -60 cytotoxic […]
structure (smiles),measurement,setting,value
"Cl.N=C(N)Nc1ccc(Oc2cccc(Nc3ccc(Cl)c(C(F)(F)F)c3)c2)cn1 [Compound 4, 1-(5-(3-((4-Chloro-3-(trifluoromethyl)phenyl)amino)phenoxy)pyridin-2-yl)guanidine hydrochloride]",toxicity towards MCF10A,100 μM,shows toxicity
same,effect on MCF10A cell viability,10 and 1 μM,does not appear to affect in any way cell viability
